Test results: US12030896B2, “PIKfyve inhibitors” (Mayo Foundation for Medical Education and Research, priority 2018, dated 2024)
Where two headings read alike, the source gives them in different places.

Assays:
[1] = Pharmacokinetic study of Example 1 in mouse (IV, IP, PO); type: in vivo, Male C57BL/6 Mouse; conditions: male, C57BL/6, mouse, plasma; for AUC(0-inf): read-out: AUC0-inf; for Cmax: read-out: Cmax; for MRT inf: read-out: MRT0-inf; for MRT last: read-out: MRT0-last; for Tmax: read-out: Tmax; for concentration at 0.25 h: 0.250 h; for concentration at 0.5 h: 0.500 h; for C0: read-out: C0; for Vd: read-out: Vdss; for bioavailability: calculated using AUC0-inf or AUC0-last with nominal dose
Protocol: Species: Male C57BL/6 Mouse, fasted.
PK/PD testing of the compound was performed in mice, after IP, IV, or oral administration.

[2] = system: Human colorectal carcinoma cell lines (HCT116, HT29); experiment: Killing of colorectal carcinoma cell lines (Cell-titer glow); type: cell-based; conditions: HCT116, HT29 vs brain tumor cell lines
Protocol: Human colorectal carcinoma cell lines were similarly tested for killing by the compound. (ATP activity is defined by use of the Cell-titer glow luminescence assay). […] All experiments were performed using RPMI media (Life Technologies) as the base formulation for “complete” media. HT29 cells require physical scraping in addition to trypsin to dissociate from tissue culture plastic.

[3] = ip, 30 mg/kg, IP 30 mg/kg, individual mice M4-M6
[4] = ip, 30 mg/kg, IP 30 mg/kg, mean
[5] = iv, 5 mg/kg, IV 5 mg/kg, individual mice M1-M3
[6] = po, 30 mg/kg, PO 30 mg/kg, individual mice M7-M9
[7] = po, 30 mg/kg, PO 30 mg/kg, mean

Cc1ccc(Nc2nc(N/N=C/c3c[nH]c4ccccc34)nc(N3CCOCC3)n2)cc1 [Example 1, (E)-4-(2-((1H-indol-3-yl)methylene)hydrazinyl)-6-morpholino-N-(p-tolyl)-1,3,5-triazin-2-amine]
concentration at 6 h [1, 3]: 97.8 ng/mL
concentration at 6 h [1, 4]: 105 ng/mL
concentration at 24 h [1, 3]: 35 ng/mL
concentration at 24 h [1, 4]: 36.6 ng/mL
AUC(0-t) [1, 3]: 2520 ng·h/mL
AUC(0-inf) [1, 3]: 3060 ng·h/mL
Cmax [1, 3]: 443 ng/mL
MRT inf [1, 3]: 13 h
MRT last [1, 3]: 7.2 h
half-life ([1]; ip, 30 mg/kg, IP 30 mg/kg, individual mice M4-M6, read-out: T1/2 (converted)): 10.9 h
Tmax [1, 3]: 1 h
AUC(0-t) [1, 4]: 2850 ng·h/mL
AUC(0-inf) [1, 4]: 3390 ng·h/mL
Cmax [1, 4]: 534 ng/mL
MRT inf [1, 4]: 12 h
MRT last [1, 4]: 6.91 h
half-life ([1]; ip, 30 mg/kg, IP 30 mg/kg, mean, read-out: T1/2 (converted)): 10.1 h
Tmax [1, 4]: 1.33 h
half-life ([1]; ip, 30 mg/kg, IP, single 30 mg/kg dose, read-out: half life (converted)): 10.1 h
concentration at 5 min [1, 5]: 1300 ng/mL
concentration at 5 min ([1]; iv, 5 mg/kg, IV 5 mg/kg, mean): 1630 ng/mL
concentration at 0.25 h [1, 5]: 1140 ng/mL
concentration at 0.25 h ([1]; iv, 5 mg/kg, IV 5 mg/kg, mean): 1310 ng/mL
concentration at 0.5 h [1, 5]: 832 ng/mL
concentration at 0.5 h ([1]; iv, 5 mg/kg, IV 5 mg/kg, mean): 1010 ng/mL
concentration at 1 h [1, 5]: 529 ng/mL
concentration at 1 h ([1]; iv, 5 mg/kg, IV 5 mg/kg, mean): 599 ng/mL
concentration at 2 h [1, 5]: 176 ng/mL
concentration at 2 h ([1]; iv, 5 mg/kg, IV 5 mg/kg, mean): 183 ng/mL
concentration at 4 h [1, 5]: 17.4 ng/mL
concentration at 4 h ([1]; iv, 5 mg/kg, IV 5 mg/kg, mean): 16.8 ng/mL
concentration at 6 h [1, 5]: 5.13 ng/mL
concentration at 6 h ([1]; iv, 5 mg/kg, IV 5 mg/kg, mean): 4.2 ng/mL
AUC(0-t) [1, 5]: 1370 ng·h/mL
clearance [1, 5]: 60.5 mL/min/kg
AUC(0-inf) [1, 5]: 1380 ng·h/mL
C0 [1, 5]: 1390 ng/mL
MRT inf [1, 5]: 0.959 h
MRT last [1, 5]: 0.936 h
half-life ([1]; iv, 5 mg/kg, IV 5 mg/kg, individual mice M1-M3, read-out: T1/2 (converted)): 0.71 h
Vd [1, 5]: 3.48 L/kg
AUC(0-t) ([1]; iv, 5 mg/kg, IV 5 mg/kg, mean): 1580 ng·h/mL
clearance ([1]; iv, 5 mg/kg, IV 5 mg/kg, mean): 53.4 mL/min/kg
AUC(0-inf) ([1]; iv, 5 mg/kg, IV 5 mg/kg, mean): 1580 ng·h/mL
C0 ([1]; iv, 5 mg/kg, IV 5 mg/kg, mean): 1820 ng/mL
MRT inf ([1]; iv, 5 mg/kg, IV 5 mg/kg, mean): 0.899 h
MRT last ([1]; iv, 5 mg/kg, IV 5 mg/kg, mean): 0.882 h
half-life ([1]; iv, 5 mg/kg, IV 5 mg/kg, mean, read-out: T1/2 (converted)): 0.667 h
Vd ([1]; iv, 5 mg/kg, IV 5 mg/kg, mean): 2.9 L/kg
concentration at 0.25 h [1, 6]: 52.7 ng/mL
concentration at 0.25 h [1, 7]: 59.1 ng/mL
concentration at 0.5 h [1, 6]: 167 ng/mL
concentration at 0.5 h [1, 7]: 122 ng/mL
concentration at 1 h [1, 7]: 92 ng/mL
concentration at 2 h [1, 7]: 30.5 ng/mL
concentration at 4 h [1, 7]: 7.49 ng/mL
concentration at 6 h [1, 6]: 11 ng/mL
concentration at 6 h [1, 7]: 10 ng/mL
AUC(0-inf) [1, 6]: 312 ng·h/mL
Cmax [1, 6]: 167 ng/mL
MRT inf [1, 6]: 2.1 h
MRT last [1, 6]: 1.69 h
half-life ([1]; po, 30 mg/kg, PO 30 mg/kg, individual mice M7-M9, read-out: T1/2 (converted)): 1.31 h
Tmax [1, 6]: 0.5 h
AUC(0-t) [1, 7]: 188 ng·h/mL
AUC(0-inf) [1, 7]: 211 ng·h/mL
Cmax [1, 7]: 122 ng/mL
MRT inf [1, 7]: 2.4 h
MRT last [1, 7]: 1.61 h
half-life ([1]; po, 30 mg/kg, PO 30 mg/kg, mean, read-out: T1/2 (converted)): 1.54 h
Tmax [1, 7]: 0.5 h
bioavailability ([1]; IP 30 mg/kg): 35.7%
bioavailability ([1]; PO 30 mg/kg): 2.22%
sensitivity to compound-induced death [2]: more sensitive
